Drawing on BindingDB's records for doi:10.1016/s0960-894x(02)00140-3 (Aventis Pharma, 2002), this text covers IC50 for one compound.

In this assay the target is Proto-oncogene tyrosine-protein kinase Src (Homo sapiens, UniProt P12931). Put plainly: ChEBML_202783. On the procedure: The compound was evaluated for its binding affinity towards phosphotyrosine binding pocket of Src protein tyrosine kinase SH2 domain

Each structure is given as a SMILES string.

Proto-oncogene tyrosine-protein kinase Src, sequence (P12931 2-536 limits assumed): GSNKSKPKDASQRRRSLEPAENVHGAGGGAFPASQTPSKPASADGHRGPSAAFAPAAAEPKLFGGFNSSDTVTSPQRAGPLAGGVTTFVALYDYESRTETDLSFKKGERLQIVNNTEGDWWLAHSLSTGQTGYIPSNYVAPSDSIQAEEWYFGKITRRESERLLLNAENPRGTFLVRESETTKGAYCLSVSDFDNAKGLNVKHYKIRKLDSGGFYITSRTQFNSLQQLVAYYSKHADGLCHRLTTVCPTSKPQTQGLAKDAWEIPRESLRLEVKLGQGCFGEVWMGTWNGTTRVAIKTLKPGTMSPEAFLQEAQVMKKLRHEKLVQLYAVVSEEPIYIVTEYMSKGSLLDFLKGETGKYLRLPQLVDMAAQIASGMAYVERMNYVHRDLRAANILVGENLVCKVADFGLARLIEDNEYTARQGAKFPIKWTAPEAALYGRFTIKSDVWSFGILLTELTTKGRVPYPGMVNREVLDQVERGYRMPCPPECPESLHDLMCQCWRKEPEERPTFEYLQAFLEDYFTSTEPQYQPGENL

`O=P(O)(O)C(O)c1cccc2ccccc12` (stereo unspecified) [[hydroxy(naphthalen-1-yl)methyl]phosphonic acid] yielded an IC50 of over 5 mM.
